Test results as given in patent publication US20070218086A1, “Adjuvant Composition and Methods for Its Use” (priority 2004, published 2007).

What was measured:
[1] = tested on: primary polyclonal human Vγ9/Vδ2 T cells; assay: TNFα release assay (cytokine release assay); type: cell-based; conditions: T-cell, 24 h, read-out: in vitro EC50
Experimental: Cells (primary polyclonal human Vγ9/Vδ2 T cells which had been expanded in vitro and stored frozen at day 12-15 of expansion) are thawed and rinsed them twice and centrifuged. Upon elimination of supernatant and resuspension of cells, cells are incubated for 24h at 37° C. in the presence of IL2 100 UI/ml (fmal concentration). Cells are washed and centrifuged, following which the supernatant is eliminated and the cells are resuspended and adjusted to the adequate final concentration. Cells are added to the wells of a 96-well plate.
To one row of wells are added a standard diluation series of 3-(bromomethyl)-3-butanol-1-yl-diphosphate (BrHPP). Compounds to be tested, in this case CHDMAPP and HDMAPP are added to experimental wells, after several dilutions.
Full plates are incubated 24 hours at 37° C. for stimulation of the γδ cells with the BrHPP standard as well as isopentenyl pyrophosphate (IPP) for comparison, and test compounds CHDMAPP and HDMAPP. After this time, 100 μl of culture supernatant is taken for TNFα dosage. Measurement of the released TNFa dosageis performed as described by the manufacturer's instruction in the TNFa enzyme immunoassay kit (ref. 11121, Immunotech-Beckman Coulter). OD at 405 nm is read, the OD being proportional to the concentration of released TNFα in the culture supernatant. The data are processed with the Excel software to compare concentration of test compound versus concentration of TNFα and for the calculation of the EC50 for each test compound.

Vγ9/Vδ2+ T cell = assay: in vitro Vγ9/Vδ2+ T cell stimulation; type: cell-based
γδ T cells = assay: in vivo Vγ9/Vδ2+ T cell stimulation in cynomolgus monkeys
[2] = tested on: IFNγ, TNF-alpha, IL2, IL4, IL5 and IL6; type: in vivo, monkeys

Structure (SMILES) | EC50 [1] [nM] | EC50 (Vγ9/Vδ2+ T cell) [nM] | EC50 (γδ T cells; Macaca fascicularis, T-cell, in cynomolgus monkeys, dosage studies described in co-pending PCT/IB2003/006375) [nM] | activation of γδ T cells (γδ T cells; administration to cynomolgus monkeys, very low doses) | cytokine production (IFNγ) over that observed with the phosphoantigen alone ([2]; cytokines known to be induced by phosphoantigen alone (IFNγ)) | cytokine production over that observed with the Hybrid-I formulation alone ([2]; serum cytokines, 8 monkeys per group, FIG. 3)
C/C(=C\COP(=O)(O)OP(=O)(O)O)CO [HDMAPP, (E)-4-Hydroxy-3-methylbut-2-enyl diphosphate] | ~0.758 | ~0.6 | ~0.005 | strong activation of γδ T cells | – | –
C/C(=C\CCP(=O)(O)OP(=O)(O)O)CO [CHDMAPP, (E)-5-hydroxy-4-methylpent-3-enyl pyrophosphonate] | ~0.873 | – | – | – | large increase of cytokine production | large and statistically significant increase in cytokine production
C=C(C)CCO[P@@](=O)(O)OP(=O)(O)O [IPP, isopentenyl pyrophosphate, reference compound] | ~31000 | – | – | – | – | –
CC(O)(CBr)CCOP(=O)(O)OP(=O)(O)O (stereo not drawn) [BrHPP, 3-(bromomethyl)-3-butanol-1-yl-diphosphate, reference compound] | ~18.6 | – | – | – | – | –
